Columns and labels:
Format in all cases: in vivo
[1] = system: Italian ryegrass (Lolium multiflorum); test: Test A preemergence, visual plant response rating; settings: approx. 10 days
Procedure, shortened: (§1)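 Greenhouse evaluation, approx. 10 days post-spray. Soil: loam + sand. Postemergence stage: 1–2 leaves, height 2–10 cm. Vehicle: non-phytotoxic solvent blend with surfactant. Score: visual injury on a 0 (no effect) to 100 (complete control) scale.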

[2] = system: barnyardgrass (Echinochloa crus-galli); test: Test A preemergence, visual plant response rating; settings: approx. 10 days
Procedure, shortened: as §1

[3] = system: foxtail, green (green foxtail, Setaria viridis); test: Test A preemergence, visual plant response rating; settings: approx. 10 days
Procedure, shortened: as §1

kochia (Kochia scoparia) [4] = test: Test A preemergence, visual plant response rating; settings: approx. 10 days
Procedure, shortened: as §1

[5] = system: pigweed (Amaranthus retroflexus); test: Test A preemergence, visual plant response rating; settings: approx. 10 days
Procedure, shortened: as §1

[6] = system: ragweed (common ragweed, Ambrosia elatior); test: Test A preemergence, visual plant response rating; settings: approx. 10 days
Procedure, shortened: as §1

[7] = system: Italian ryegrass (Lolium multiflorum); test: Test A postemergence, visual plant response rating; settings: for Ryegrass, Italian plant response rating (0 to 100 scale): 500 g ai/ha, postemergence, 0 is no effect, 100 is complete control; for Ryegrass, Italian plant response rating: Postemergence, 125 g ai/ha, 0 to 100 scale (0 no effect, 100 complete control)
Procedure, shortened: as §1

[8] = system: barnyardgrass (Echinochloa crus-galli); test: Test A postemergence, visual plant response rating; settings: for Barnyardgrass plant response rating (0 to 100 scale): 500 g ai/ha, postemergence, 0 is no effect, 100 is complete control; for Barnyardgrass plant response rating: Postemergence, 125 g ai/ha, 0 to 100 scale (0 no effect, 100 complete control)
Procedure, shortened: as §1

[9] = system: blackgrass (Alopecurus myosuroides); test: Test A postemergence, visual plant response rating; settings: for Blackgrass plant response rating (0 to 100 scale): 500 g ai/ha, postemergence, 0 is no effect, 100 is complete control; for Blackgrass plant response rating: Postemergence, 125 g ai/ha, 0 to 100 scale (0 no effect, 100 complete control)
Procedure, shortened: as §1

corn (Zea mays) = test: Test A postemergence, visual plant response rating; settings: for Corn plant response rating (0 to 100 scale): 500 g ai/ha, postemergence, 0 is no effect, 100 is complete control; for Corn plant response rating: Postemergence, 125 g ai/ha, 0 to 100 scale (0 no effect, 100 complete control)
Procedure, shortened: as §1

[10] = system: foxtail, green (green foxtail, Setaria viridis); test: Test A postemergence, visual plant response rating; settings: for Foxtail, Green plant response rating (0 to 100 scale): 500 g ai/ha, postemergence, 0 is no effect, 100 is complete control; for Foxtail, Green plant response rating: Postemergence, 125 g ai/ha, 0 to 100 scale (0 no effect, 100 complete control)
Procedure, shortened: as §1

[11] = system: galium (catchweed bedstraw, Galium aparine); test: Test A postemergence, visual plant response rating; settings: for Galium plant response rating (0 to 100 scale): 500 g ai/ha, postemergence, 0 is no effect, 100 is complete control; for Galium plant response rating: Postemergence, 125 g ai/ha, 0 to 100 scale (0 no effect, 100 complete control)
Procedure, shortened: as §1

kochia (Kochia scoparia) [12] = test: Test A postemergence, visual plant response rating; settings: for Kochia plant response rating (0 to 100 scale): 500 g ai/ha, postemergence, 0 is no effect, 100 is complete control; for Kochia plant response rating: Postemergence, 125 g ai/ha, 0 to 100 scale (0 no effect, 100 complete control)
Procedure, shortened: as §1

[13] = system: pigweed (Amaranthus retroflexus); test: Test A postemergence, visual plant response rating; settings: for Pigweed plant response rating (0 to 100 scale): 500 g ai/ha, postemergence, 0 is no effect, 100 is complete control; for Pigweed plant response rating: Postemergence, 125 g ai/ha, 0 to 100 scale (0 no effect, 100 complete control)
Procedure, shortened: as §1

[14] = system: ragweed (common ragweed, Ambrosia elatior); test: Test A postemergence, visual plant response rating; settings: for Ragweed plant response rating (0 to 100 scale): 500 g ai/ha, postemergence, 0 is no effect, 100 is complete control; for Ragweed plant response rating: Postemergence, 125 g ai/ha, 0 to 100 scale (0 no effect, 100 complete control)
Procedure, shortened: as §1

[15] = system: wheat (Triticum aestivum); test: Test A postemergence, visual plant response rating; settings: for Wheat plant response rating (0 to 100 scale): 500 g ai/ha, postemergence, 0 is no effect, 100 is complete control; for Wheat plant response rating: Postemergence, 125 g ai/ha, 0 to 100 scale (0 no effect, 100 complete control)
Procedure, shortened: as §1

[16] = system: barnyardgrass (Echinochloa crus-galli); test: Test B flooded paddy test, visual plant response rating; settings: 250 g ai/ha, Flood, applied to paddy water, 2-leaf stage, evaluated after 13 to 15 days
Procedure, shortened: (§2)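 Seedlings at 2 leaves; compound into paddy water (3 cm flood, maintained); 13–15 d greenhouse; visual score relative to controls.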

[17] = system: ducksalad (Heteranhera limosa); test: as above; settings: 250 g ai/ha, Flood, applied to paddy water, 2-leaf stage, evaluated after 13 to 15 days
Procedure, shortened: as §2

rice (Oryza sativa) = test: as above; settings: 250 g ai/ha, Flood, applied to paddy water, 2-leaf stage, evaluated after 13 to 15 days
Procedure, shortened: as §2

[18] = system: sedge, umbrella (small-flower umbrella sedge, Cyperus difformis); test: as above; settings: 250 g ai/ha, Flood, applied to paddy water, 2-leaf stage, evaluated after 13 to 15 days
Procedure, shortened: as §2

Row | SMILES | Ryegrass, Italian plant response rating (0 to 100 scale) ([1]; 125 g ai/ha Preemergence) | Ryegrass, Italian plant response rating (0 to 100 scale) ([1]; 500 g ai/ha Preemergence) | Barnyardgrass plant response rating (0 to 100 scale) ([2]; 125 g ai/ha Preemergence) | Barnyardgrass plant response rating (0 to 100 scale) ([2]; 500 g ai/ha Preemergence) | Foxtail, Green plant response rating (0 to 100 scale) ([3]; 125 g ai/ha Preemergence) | Foxtail, Green plant response rating (0 to 100 scale) ([3]; 500 g ai/ha Preemergence) | Kochia plant response rating (0 to 100 scale) (kochia (Kochia scoparia) [4]; 125 g ai/ha Preemergence) | Kochia plant response rating (0 to 100 scale) (kochia (Kochia scoparia) [4]; 500 g ai/ha Preemergence) | Pigweed plant response rating (0 to 100 scale) ([5]; 125 g ai/ha Preemergence) | Pigweed plant response rating (0 to 100 scale) ([5]; 500 g ai/ha Preemergence) | Ragweed plant response rating (0 to 100 scale) ([6]; 125 g ai/ha Preemergence) | Ragweed plant response rating (0 to 100 scale) ([6]; 500 g ai/ha Preemergence) | Ryegrass, Italian plant response rating (0 to 100 scale) [7] | Ryegrass, Italian plant response rating [7] | Barnyardgrass plant response rating (0 to 100 scale) [8] | Barnyardgrass plant response rating [8] | Blackgrass plant response rating (0 to 100 scale) [9] | Blackgrass plant response rating [9] | Corn plant response rating (0 to 100 scale) (corn (Zea mays)) | Corn plant response rating (corn (Zea mays)) | other results
1 | CO/N=C(/c1cc(C)ccc1C)c1c(O)c(C)nn(C)c1=O [Compound 30] | 20 | 50 | 0 | 50 | 0 | 60 | 0 | 30 | 30 | 80 | 20 | 70 | 70 | 40 | 40 | 20 | 80 | 10 | 0 | 0 | Foxtail, Green plant response rating (0 to 100 scale) [10]: 40; Foxtail, Green plant response rating [10]: 0; Galium plant response rating (0 to 100 scale) [11]: 80; Galium plant response rating [11]: 60; Kochia plant response rating (0 to 100 scale) (kochia (Kochia scoparia) [12]): 30; Kochia plant response rating (kochia (Kochia scoparia) [12]): 10; Pigweed plant response rating (0 to 100 scale) [13]: 50; Pigweed plant response rating [13]: 30; Ragweed plant response rating (0 to 100 scale) [14]: 60; Ragweed plant response rating [14]: 40; Wheat plant response rating (0 to 100 scale) [15]: 30; Wheat plant response rating [15]: 10; Plant response rating, Barnyardgrass (0 to 100 scale, 0 is no effect, 100 is complete control) [16]: 0; Plant response rating, Ducksalad (0 to 100 scale, 0 is no effect, 100 is complete control) [17]: 0; Plant response rating, Rice (0 to 100 scale, 0 is no effect, 100 is complete control) (rice (Oryza sativa)): 0; Plant response rating, Sedge, Umbrella (0 to 100 scale, 0 is no effect, 100 is complete control) [18]: 0
2 | CO/N=C(/c1c(O)c(C)nn(C)c1=O)c1cccc2ccccc12 [Compound 31] | 40 | 70 | 10 | 70 | 30 | 90 | 10 | 90 | 40 | 90 | 30 | 80 | 90 | 60 | 90 | 40 | 90 | 80 | 50 | 20 | Foxtail, Green plant response rating (0 to 100 scale) [10]: 80; Foxtail, Green plant response rating [10]: 50; Galium plant response rating (0 to 100 scale) [11]: 90; Galium plant response rating [11]: 90; Kochia plant response rating (0 to 100 scale) (kochia (Kochia scoparia) [12]): 80; Kochia plant response rating (kochia (Kochia scoparia) [12]): 70; Pigweed plant response rating (0 to 100 scale) [13]: 90; Pigweed plant response rating [13]: 60; Ragweed plant response rating (0 to 100 scale) [14]: 90; Ragweed plant response rating [14]: 70; Wheat plant response rating (0 to 100 scale) [15]: 20; Wheat plant response rating [15]: 0; Plant response rating, Barnyardgrass (0 to 100 scale, 0 is no effect, 100 is complete control) [16]: 25; Plant response rating, Ducksalad (0 to 100 scale, 0 is no effect, 100 is complete control) [17]: 0; Plant response rating, Rice (0 to 100 scale, 0 is no effect, 100 is complete control) (rice (Oryza sativa)): 40; Plant response rating, Sedge, Umbrella (0 to 100 scale, 0 is no effect, 100 is complete control) [18]: 0
3 | CCO/N=C(/c1cccc(C)c1C)c1c(O)c(C)nn(C)c1=O [Compound 24] | 10 | 50 | 0 | 10 | 20 | 60 | 0 | 0 | 20 | 40 | 30 | 60 | 40 | 10 | 30 | 0 | 40 | 10 | 0 | 0 | Foxtail, Green plant response rating (0 to 100 scale) [10]: 20; Foxtail, Green plant response rating [10]: 0; Galium plant response rating (0 to 100 scale) [11]: 60; Galium plant response rating [11]: 50; Kochia plant response rating (0 to 100 scale) (kochia (Kochia scoparia) [12]): 20; Kochia plant response rating (kochia (Kochia scoparia) [12]): 0; Pigweed plant response rating (0 to 100 scale) [13]: 60; Pigweed plant response rating [13]: 30; Ragweed plant response rating (0 to 100 scale) [14]: 60; Ragweed plant response rating [14]: 30; Wheat plant response rating (0 to 100 scale) [15]: 0; Wheat plant response rating [15]: 0; Plant response rating, Barnyardgrass (0 to 100 scale, 0 is no effect, 100 is complete control) [16]: 0; Plant response rating, Ducksalad (0 to 100 scale, 0 is no effect, 100 is complete control) [17]: 0; Plant response rating, Rice (0 to 100 scale, 0 is no effect, 100 is complete control) (rice (Oryza sativa)): 0; Plant response rating, Sedge, Umbrella (0 to 100 scale, 0 is no effect, 100 is complete control) [18]: 0

— patent US20210045385A1, “PYRIDAZINONE-SUBSTITUTED KETOXIMES AS HERBICIDES” (FMC Corporation, priority 2018, published 2021)
